Source: article PMC10569036

Assay: shake flask on a mixture of 185; loss from the water phase only; LC-Orbitrap peak areas
Settings: room

| SMILES | log partition 1-octanol / HPLC water, unbuffered, traces of methanol / DMSO | log partition butyl acetate / HPLC water, unbuffered, traces of methanol / DMSO | log partition chloroform / HPLC water, unbuffered, traces of methanol / DMSO | log partition cyclohexane / HPLC water, unbuffered, traces of methanol / DMSO | log partition dichloromethane / HPLC water, unbuffered, traces of methanol / DMSO | log partition n-hexane / HPLC water, unbuffered, traces of methanol / DMSO | log partition n-octane / HPLC water, unbuffered, traces of methanol / DMSO | log partition n-undecane / HPLC water, unbuffered, traces of methanol / DMSO | log partition oleylalcohol / HPLC water, unbuffered, traces of methanol / DMSO | log partition toluene / HPLC water, unbuffered, traces of methanol / DMSO |
| --- | --- | --- | --- | --- | --- | --- | --- | --- | --- | --- |
| CCCCc1ccc(O)cc1 | -0.1262 log10 | -0.005316 log10 | -0.1217 log10 | -0.5302 log10 | 0.2438 log10 | -0.849 log10 | -0.6939 log10 | -0.8247 log10 | -0.3004 log10 | -0.3739 log10 |
| CN(C)c1ccc(Cc2ccc(N(C)C)cc2)cc1 | 0.3418 log10 | 1.067 log10 | 3.139 log10 | 0.5577 log10 | 2.123 log10 | -0.5531 log10 | 0.3458 log10 | -0.4236 log10 | -0.165 log10 | 1.554 log10 |
| Cc1cc(O)cc(C)c1Cl | 0.7604 log10 | 0.7531 log10 | 0.7311 log10 | 0.5528 log10 | 0.8657 log10 | 0.611 log10 | 0.5049 log10 | 0.3954 log10 | 0.7156 log10 | 0.8203 log10 |
| OC(c1ccc(F)cc1)(c1cncnc1)c1ccccc1Cl (centres unmarked) | 2.087 log10 | 2.226 log10 | 2.317 log10 | 2.077 log10 | 2.933 log10 | 1.642 log10 | 1.699 log10 | 1.456 log10 | 1.561 log10 | 2.565 log10 |
| COc1ccccc1/C=C/C=O | 1.387 log10 | 0.7851 log10 | 0.6596 log10 | -0.3102 log10 | 0.6345 log10 | 0.495 log10 | -0.2565 log10 | -0.1964 log10 | -0.5567 log10 | 0.2589 log10 |
| Cc1cc(SCc2sc(-c3ccc(C(F)(F)F)c(F)c3)nc2C)ccc1OCC(=O)O | -0.1342 log10 | 0.8792 log10 | 0.4425 log10 | -1.06 log10 | 0.6672 log10 | -1.28 log10 | -0.8266 log10 | -1.326 log10 | 0.4514 log10 | -0.01784 log10 |
| CCCCC(CC)C(=O)OCCOCCOCCOCCOC(=O)C(CC)CCCC (centres unmarked) | 1.119 log10 | -0.08786 log10 | -0.484 log10 | -2.242 log10 | -0.03133 log10 | -1.802 log10 | -2.665 log10 | -0.9886 log10 | 1.482 log10 | 0.3117 log10 |
| FC(F)C(F)(F)OCC(Cn1cncn1)c1ccc(Cl)cc1Cl (centres unmarked) | 1.148 log10 | 1.223 log10 | 0.6534 log10 | 0.9109 log10 | 1.238 log10 | 0.4737 log10 | 0.5004 log10 | 0.1193 log10 | 0.4709 log10 | 1.159 log10 |
| CC(C)(C)c1ccc(O)c(O)c1 | 0.06578 log10 | -0.6544 log10 | 0.08964 log10 | -0.4267 log10 | -0.4317 log10 | -0.4698 log10 | -0.4633 log10 | -0.5006 log10 | -0.3469 log10 | -0.3594 log10 |
| Cc1ccc(N)c(S(=O)(=O)O)c1 | 0.1434 log10 | 0.1277 log10 | 1.369 log10 | -0.01168 log10 | 1.153 log10 | 0.1369 log10 | -0.1323 log10 | -0.3053 log10 | -0.05327 log10 | 0.5377 log10 |
| CC(C)(C#N)Nc1nc(Cl)nc(NC2CC2)n1 | 2.353 log10 | 1.721 log10 | 2.761 log10 | -0.1053 log10 | 2.268 log10 | -0.13 log10 | 0.2329 log10 | -0.4376 log10 | 1.837 log10 | 1.234 log10 |
| CN1C(=O)CCS(=O)(=O)C1c1ccc(Cl)cc1 (centres unmarked) |  |  | 3.591 log10 |  | 5.525 log10 |  |  |  |  | 4.586 log10 |
| CC(=O)CCc1ccc(OC(C)=O)cc1 | -0.06689 log10 | 0.7696 log10 | 1.426 log10 | -0.7757 log10 | 1.412 log10 | -1.074 log10 | -1.39 log10 | -1.078 log10 | -0.5711 log10 | -0.2898 log10 |
| CCCCCCOc1cc(C)c(O)c(C)c1C | -0.6155 log10 | -0.05403 log10 | 0.3185 log10 | -0.4525 log10 | -0.07725 log10 | -0.4691 log10 | -0.1513 log10 | -0.6506 log10 | 0.4249 log10 | -0.2013 log10 |
| CCCCCCCCCCCC(=O)OCC(O)CO (centres unmarked) | -0.5214 log10 | -0.773 log10 | -0.7717 log10 | -1.167 log10 | -0.6352 log10 | -1.755 log10 | -1.639 log10 | -1.584 log10 | -1.087 log10 | -1.18 log10 |
